# Test system: S. elongatus
# Experiment: tolerance of S. elongatus to isobutyraldehyde and isobutanol (growth by OD730)
# Assay type: cell-based, Synechococcus elongatus PCC7942
# Procedure: FIGS. 1P-1Q show S. elongatus tolerance to isobutyraldehyde and isobutanol. Effect of isobutyraldehyde (P) or isobutanol (Q) addition on growing cultures of S. elongatus as determined by optical density (OD730). At OD730 ˜1.0, isobutyraldehyde or isobutanol was added to the cultures at final concentration (mg/L) of: 0 (squares), 500 (circles), 750 (triangles), 1000 (diamonds) and 2500 (stars).
# The tolerance of S. elongatus to isobutyraldehyde and isobutanol was also measured (FIG. 1P). […] In addition, the isobutyraldehyde tolerance level of S. elongatus is much higher than the concentration found in the culture medium during production. […] Thus, the in situ product removal system effectively avoids toxicity effects.
# Wild-type S. elongatus and mutant strains were grown in a modified BG-11 medium with the following modifications: 50 mM NaHCO3 and 10 mg/l thiamine were added. For an experiment with 5% CO2 bubbling, 50 mM NaHCO3 was not added. Cyanobacterial cells were grown at 30° C. under fluorescent light (55 μE s^−1 m^−2), which was provided by eight 86-cm 20-W fluorescent tubes placed 15 cm from the cell culture. Cell growth was monitored by measuring OD730 of each culture.
SMILES,"effect on growth (wild-type S. elongatus, the same concentration (750 mg/l) added to growing cultures, growth by OD730)","relative toxicity to the cell (S. elongatus, isobutyraldehyde compared with isobutanol)","tolerated concentration (wild-type S. elongatus, compound added to growing cultures at OD730 ~1.0, growth by OD730)"
CC(C)CO [isobutanol],growth retardation,–,–
CC(C)C=O [isobutyraldehyde],–,less toxic to the cell than isobutanol,up to 750 mg/l

# — US9145542B2, “Method for producing aldehyde from CO2” (The Regents of the University of California, priority 2008, dated 2015)
